Measured values published in patent publication US20250002529A1, “NOVEL […] COMPOUNDS, PREPARATION METHODS, COMPOSITIONS AND APPLICATIONS” (Guangzhou Anobri Pharmaceutical Co. Ltd., priority 2021, published 2025).
Read-outs that look alike come from different tables or passages of the source.

How the values were obtained:
SARS-CoV-2 virus = test: In vitro anti-SARS-CoV-2 virus assay (Vero E6 cells, viral RNA by PCR); type: cell-based
[1] = type: in vivo, Male Wistar-Hannover rats
[2] = Vero E6 cells, compound final concentration 100 nM, PCR of supernatant viral RNA after 2-3 days

| Molecule | Inhibition rate (virus replication) (SARS-CoV-2 virus; 0.1 µM) [%] | Inhibition rate (virus replication) (SARS-CoV-2 virus; [2]) [%] | Cmax ([1]; rat, in vivo, 10 mg/kg) [ng/mL] | AUC0~∞ ([1]; rats, dose 10 mg/kg, plasma) [ng·h/mL] | T1/2 ([1]; rats, dose 10 mg/kg, plasma) [h] | Tmax ([1]; rats, dose 10 mg/kg, plasma) [h] | Cmax ([1]; rats, dose 10 mg/kg, plasma) [ng/mL] | inhibition at 0.1 µM (SARS-CoV-2 virus; Severe acute respiratory syndrome coronavirus 2, Vero C1008, read-out: Inhibition rate (virus replication)) [%] |
| --- | --- | --- | --- | --- | --- | --- | --- | --- |
| PF-07321332 [reference compound] | 72.9 |  |  |  |  |  |  |  |
| [2H][C@](NC(=O)C(F)(F)F)(C(=O)N1C[C@H]2[C@@H]([C@H]1C(=O)N[C@H](C#N)C[C@@H]1CCNC1=O)C2(C)C)C(C)(C)C [Compound 16] |  | 72.6 | 1452 | 2294 | 4 | 2 |  |  |
| [2H]C1([2H])C[C@@H](C[C@@H](C#N)NC(=O)[C@@H]2[C@@H]3[C@H](CN2C(=O)[C@@H](NC(=O)C(F)(F)F)C(C)(C)C)C3(C)C)C(=O)N1 [Compound 1] |  | 71.5 |  | 1974 | 3.5 | 2 | 1393 |  |
| [2H]C([2H])([2H])C(C(NC(=O)C(F)(F)F)C(=O)N1C[C@H]2[C@@H]([C@H]1C(=O)N[C@H](C#N)C[C@@H]1CCNC1=O)C2(C)C)(C([2H])([2H])[2H])C([2H])([2H])[2H] (stereo partly shown) [Compound 32] |  | 70.4 |  | 2011 | 3.5 | 2 | 1429 |  |
| [2H][C@@](C#N)(C[C@@H]1CCNC1=O)NC(=O)[C@@H]1[C@@H]2[C@H](CN1C(=O)[C@@H](NC(=O)C(F)(F)F)C(C)(C)C)C2(C)C [Compound 2] |  | 73.5 |  | 2325 | 4.2 | 2 | 1480 |  |
| O=C(OC[C@H]1O[C@@H](OC(=O)c2cc(O)c(O)c(OC(=O)c3cc(O)c(O)c(O)c3)c2)[C@H](OC(=O)c2cc(O)c(O)c(OC(=O)c3cc(O)c(O)c(O)c3)c2)[C@@H](OC(=O)c2cc(O)c(O)c(OC(=O)c3cc(O)c(O)c(O)c3)c2)[C@@H]1OC(=O)c1cc(O)c(O)c(OC(=O)c2cc(O)c(O)c(O)c2)c1)c1cc(O)c(O)c(OC(=O)c2cc(O)c(O)c(O)c2)c1 [Control, tannic acid, reference compound] |  |  |  |  |  |  |  | 54.1 |
